In patent US7528138B2, “Pyrazolo[1,5-a]pyrimidines useful as inhibitors of protein kinases” (Vertex Pharmaceuticals Incorporated, priority 2004, dated 2009):

Experiments:
Aurora-2 = target: T1, Aurora-2 (Homo sapiens, UniProt O14965); assay: Aurora-A (Aurora-2) Inhibition Assay, coupled enzyme assay; type: biochemical; settings: enzyme inhibition data (Ki), Table 11; read-out: AurA Ki
T1 sequence (O14965 1-403): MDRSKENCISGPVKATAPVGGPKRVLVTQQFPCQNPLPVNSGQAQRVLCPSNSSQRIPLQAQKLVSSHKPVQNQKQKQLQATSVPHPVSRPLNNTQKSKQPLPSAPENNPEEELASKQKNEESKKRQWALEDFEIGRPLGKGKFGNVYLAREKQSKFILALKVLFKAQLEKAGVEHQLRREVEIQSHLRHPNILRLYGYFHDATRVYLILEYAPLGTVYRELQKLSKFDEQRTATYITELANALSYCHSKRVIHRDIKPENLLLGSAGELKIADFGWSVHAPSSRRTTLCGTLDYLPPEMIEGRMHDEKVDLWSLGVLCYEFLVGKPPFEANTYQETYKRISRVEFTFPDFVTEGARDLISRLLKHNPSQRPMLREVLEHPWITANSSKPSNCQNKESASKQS
Method: Compounds are screened for their ability to inhibit Aurora-2 using a standard coupled enzyme assay (Fox et al., Protein Sci., (1998) 7, 2249). Assays are carried out in a mixture of 100 mM Hepes (pH7.5), 10 mM MgCl2, 1 mM DTT, 25 mM NaCl, 2.5 mM phosphoenolpyruvate, 300 μM NADH, 30 μg/ml pyruvate kinase and 10 μg/ml lactate dehydrogenase. Final substrate concentrations in the assay are 400 μM ATP (Sigma Chemicals) and 570 μM peptide (Kemptide, American Peptide, Sunnyvale, Calif.). Assays are carried out at 30° C. and in the presence of 40 nM Aurora-2.
An assay stock buffer solution is prepared containing all of the reagents listed above, with the exception of Aurora-2 and the test compound of interest. 55 μl of the stock solution is placed in a 96 well plate followed by addition of 2 μl of DMSO stock containing serial dilutions of the test compound (typically starting from a final concentration of 7.5 μM). The plate is preincubated for 10 minutes at 30° C. and the reaction initiated by addition of 10 μl of Aurora-2. Initial reaction rates are determined with a Molecular Devices SpectraMax Plus plate reader over a 10 minute time course. IC50 and Ki data are calculated from non-linear regression analysis using the Prism software package (GraphPad Prism version 3.0cx for Macintosh, GraphPad Software, San Diego Calif., USA).

JAK3 = target: T2, JAK3 (Homo sapiens, UniProt P52333); assay: JAK3 Inhibition Assay, 33P incorporation; type: biochemical; settings: enzyme inhibition data (Ki), Table 11
T2 sequence (P52333 1-1124): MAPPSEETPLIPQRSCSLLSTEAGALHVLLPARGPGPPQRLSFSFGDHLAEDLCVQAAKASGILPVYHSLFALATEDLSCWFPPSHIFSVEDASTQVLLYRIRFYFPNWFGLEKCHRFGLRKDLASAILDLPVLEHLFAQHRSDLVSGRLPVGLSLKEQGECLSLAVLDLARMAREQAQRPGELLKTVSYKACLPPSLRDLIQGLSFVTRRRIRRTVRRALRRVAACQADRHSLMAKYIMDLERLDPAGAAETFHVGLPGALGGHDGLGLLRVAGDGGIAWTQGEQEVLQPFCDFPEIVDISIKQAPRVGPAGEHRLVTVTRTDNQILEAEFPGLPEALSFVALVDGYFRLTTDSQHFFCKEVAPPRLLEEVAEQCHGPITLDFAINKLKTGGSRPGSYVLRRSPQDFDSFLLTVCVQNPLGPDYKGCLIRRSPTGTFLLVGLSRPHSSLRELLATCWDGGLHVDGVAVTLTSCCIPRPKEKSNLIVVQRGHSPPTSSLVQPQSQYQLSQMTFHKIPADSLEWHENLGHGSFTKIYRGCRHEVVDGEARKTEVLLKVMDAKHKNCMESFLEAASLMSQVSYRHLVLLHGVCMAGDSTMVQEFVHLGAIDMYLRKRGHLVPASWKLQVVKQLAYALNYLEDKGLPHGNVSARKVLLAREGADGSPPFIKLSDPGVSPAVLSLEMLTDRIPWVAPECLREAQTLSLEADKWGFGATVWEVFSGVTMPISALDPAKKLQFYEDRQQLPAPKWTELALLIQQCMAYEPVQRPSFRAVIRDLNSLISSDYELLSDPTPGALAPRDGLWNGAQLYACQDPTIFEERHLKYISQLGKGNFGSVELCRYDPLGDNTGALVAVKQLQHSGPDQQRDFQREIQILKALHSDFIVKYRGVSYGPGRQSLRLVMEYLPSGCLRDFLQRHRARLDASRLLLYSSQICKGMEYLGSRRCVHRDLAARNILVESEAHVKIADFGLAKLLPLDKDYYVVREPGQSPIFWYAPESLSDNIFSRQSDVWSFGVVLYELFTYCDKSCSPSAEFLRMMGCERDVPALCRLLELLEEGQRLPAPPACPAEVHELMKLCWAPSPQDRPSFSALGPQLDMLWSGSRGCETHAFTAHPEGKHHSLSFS
Procedure, shortened: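 Recombinant JAK3 at 1 nM in HEPES pH 7.4 buffer with 10 mM MgCl2, 1 mM DTT and 0.01% BSA. Substrates were 5 μM ATP (200 uCi/μmole) and 1 μM poly(Glu)4Tyr, reacted 20 min at 25 °C. Stopped with TCA, and 33P incorporation counted on glass fiber filters.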

Ki (Aurora-2) | Ki (JAK3) | Structure (SMILES)
< 0.5 µM | 0.5 to 5 µM | Nc1nn2cc(-c3ccncc3)cnc2c1-c1cc(NCC2CCCCC2)ncn1 [Compound V-184]
0.5 to 5 µM | 0.5 to 5 µM | CN(C)CCNc1ccc(-c2cnc3c(-c4ccccn4)c(N)nn3c2)cn1 [Compound V-159]
< 0.5 µM | 0.5 to 5 µM | CN(C)CCN(C)C(=O)c1ccc(-c2cnc3c(-c4ccccn4)c(N)nn3c2)cc1 [Compound V-188]
< 0.5 µM | < 0.5 µM | CNc1cc(-c2c(N)nn3cc(-c4ccncc4)cnc23)ncn1 [Compound V-181]
0.5 to 5 µM | 0.5 to 5 µM | Nc1nn2cc(-c3cccc(CO)c3)cnc2c1-c1ccccn1 [Compound V-221]
0.5 to 5 µM | > 5 µM | COCCNc1ccc(-c2cnc3c(-c4ccccn4)c(N)nn3c2)cn1 [Compound V-156]
< 0.5 µM | 0.5 to 5 µM | CNCc1ccc(-c2cnc3c(-c4ccccn4)c(N)nn3c2)cc1 [Compound V-236]
< 0.5 µM | < 0.5 µM | Nc1nn2cc(-c3ccncc3)cnc2c1-c1cc(N2CCCCC2)ncn1 [Compound V-179]
< 0.5 µM | > 5 µM | Nc1nn2cc(-c3ccc4[nH]ccc4c3)cnc2c1-c1ccccn1 [Compound V-212]
< 0.5 µM | 0.5 to 5 µM | CCN(CC)C(=O)c1ccc(-c2cnc3c(-c4ccccn4)c(N)nn3c2)nc1 [Compound V-98]
0.5 to 5 µM | > 5 µM | COc1ccc(-c2cnc3c(-c4ccncc4)c(N)nn3c2)cc1 [Compound V-219]
< 0.5 µM | < 0.5 µM | Nc1nn2cc(-c3ccncc3)cnc2c1-c1cc(Nc2ccccc2)ncn1 [Compound V-241]
0.5 to 5 µM | 0.5 to 5 µM | CCN(CC)CCN(C)c1ccc(-c2cnc3c(-c4ccccn4)c(N)nn3c2)cn1 [Compound V-173]
0.5 to 5 µM | > 5 µM | Cc1ccc(-c2c(N)nn3cc(-c4ccncc4)cnc23)nc1 [Compound V-132]
0.5 to 5 µM | > 5 µM | Nc1nn2cc(-c3ccc(N4CCNCC4)nc3)cnc2c1-c1ccccn1 [Compound V-151]
< 0.5 µM | 0.5 to 5 µM | Nc1nn2cc(-c3ccc(CO)cc3)cnc2c1-c1ccccn1 [Compound V-194]
0.5 to 5 µM | > 5 µM | CN(CCCN)C(=O)c1ccc(-c2cnc3c(-c4ccccn4)c(N)nn3c2)nc1 [Compound V-130]
< 0.5 µM | < 0.5 µM | CCN(CC)c1cc(-c2c(N)nn3cc(-c4ccncc4)cnc23)ncn1 [Compound V-180]
0.5 to 5 µM | > 5 µM | CN1CCCN(c2ccc(-c3cnc4c(-c5ccccn5)c(N)nn4c3)cn2)CC1 [Compound V-160]

The next lines start with the molecule.

Structure (SMILES) | Ki (Aurora-2) | Ki (JAK3)
Nc1nn2cc(-c3ccc(CNC4CCNCC4)cc3)cnc2c1-c1ccccn1 [Compound V-232] | 0.5 to 5 µM | > 5 µM
Nc1nn2cc(-c3cccc(C(=O)N4CCC[C@H]4CN4CCCC4)n3)cnc2c1-c1ccccn1 [Compound V-154] | 0.5 to 5 µM | > 5 µM
CCN(C)C(=O)c1cccc(-c2cnc3c(-c4ccccn4)c(N)nn3c2)n1 [Compound V-115] | 0.5 to 5 µM | > 5 µM
CCN(CC)C(=O)c1cccc(-c2cnc3c(-c4ccccn4)c(N)nn3c2)n1 [Compound V-127] | 0.5 to 5 µM | > 5 µM
CC(C)N1CCN(c2ccc(-c3cnc4c(-c5ccccn5)c(N)nn4c3)cn2)CC1 [Compound V-146] | 0.5 to 5 µM | > 5 µM
NC1NN2C=C(c3cccc(CN4CC[C@H](N)C4)c3)C=NC2=C1c1ccccn1 (some centres unmarked) [Compound V-227] | 0.5 to 5 µM | > 5 µM
C#CCN(C)C(=O)c1cccc(-c2cnc3c(-c4ccccn4)c(N)nn3c2)n1 [Compound V-106] | 0.5 to 5 µM | > 5 µM
Nc1nn2cc(-c3ccc(N4CCC[C@H]4CN4CCCC4)nc3)cnc2c1-c1ccccn1 [Compound V-152] | 0.5 to 5 µM | > 5 µM
Nc1nn2cc(-c3ccc(CN4CCNCC4)cc3)cnc2c1-c1ccccn1 [Compound V-217] | < 0.5 µM | 0.5 to 5 µM
CCN1CCN(C(=O)c2cccc(-c3cnc4c(-c5ccccn5)c(N)nn4c3)n2)CC1 [Compound V-102] | 0.5 to 5 µM | > 5 µM
Nc1nn2cc(-c3cccc(C(=O)N4CCC(N)CC4)n3)cnc2c1-c1ccccn1 [Compound V-104] | 0.5 to 5 µM | > 5 µM
Nc1nn2cc(-c3ccc(CN4CC[C@@H](N)C4)cc3)cnc2c1-c1ccccn1 [Compound V-231] | < 0.5 µM | 0.5 to 5 µM
COc1ccc(-c2cn3nc(N)c(-c4ccccn4)c3nc2C)cc1 [Compound V-216] | 0.5 to 5 µM | > 5 µM
Nc1nn2cc(-c3ccc(CN4CC[C@H](N)C4)cc3)cnc2c1-c1ccccn1 [Compound V-233] | < 0.5 µM | 0.5 to 5 µM
CNC(=O)c1cnc2c(-c3ccccn3)c(N)nn2c1 [Compound V-204] | 0.5 to 5 µM | > 5 µM
